Experimental data: paper PMC7785020, “A unique hormonal recognition feature of the human glucagon-like peptide-2 receptor” (Cell Research, 2020)
Residue numbers refer to the chain shown, from its start. No end group written: not given here.

Tests used:
GLP-1R (WT) = GLP-1R (WT) (Homo sapiens, UniProt P43220); test: cAMP accumulation, WT GLP-1R; format: cell-based; parameters: expressed in transfected cells; host or cells: HEK 293T; details: Table S5, GLP-1R (WT), HEK 293T, 30 min, RT, mean ± SEM, n ≥ 3 in duplicate; for EC50: read-out: cAMP pEC50 (converted)
GLP-2R Y186^1.47A = molecular target: T1, GLP-2R Y186^1.47A (Homo sapiens, UniProt O95838, Y186A); test: radioligand competition binding, Y186^1.47A; parameters: WT (1–553); expressed in transfected cells; details: COS-7, Y186^1.47A; [^125I]GLP-2(1–33, M10Y) 10–15 pM, 4 h, 4 °C; n ≥ 3 in duplicate
T1 sequence (O95838 1-553 Y186A): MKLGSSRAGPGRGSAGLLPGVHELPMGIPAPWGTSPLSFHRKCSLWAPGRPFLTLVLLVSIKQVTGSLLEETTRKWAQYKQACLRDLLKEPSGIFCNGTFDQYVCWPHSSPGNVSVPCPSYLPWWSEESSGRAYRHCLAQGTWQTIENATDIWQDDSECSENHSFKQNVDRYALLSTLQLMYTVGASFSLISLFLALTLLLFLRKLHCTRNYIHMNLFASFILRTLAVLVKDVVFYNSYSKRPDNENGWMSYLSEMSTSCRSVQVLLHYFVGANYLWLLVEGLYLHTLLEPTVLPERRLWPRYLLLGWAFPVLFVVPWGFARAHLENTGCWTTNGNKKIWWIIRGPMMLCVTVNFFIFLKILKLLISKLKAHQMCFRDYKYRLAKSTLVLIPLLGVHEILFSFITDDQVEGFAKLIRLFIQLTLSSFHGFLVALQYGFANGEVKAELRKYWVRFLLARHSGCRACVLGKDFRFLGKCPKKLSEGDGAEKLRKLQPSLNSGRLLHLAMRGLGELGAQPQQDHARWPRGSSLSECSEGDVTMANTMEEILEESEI
Procedure: A stepwise oxidation reaction was performed by addition of 6 aliquots of 5 µL ChloramineT (30 µL/mL) with a 1-min interval during constant stirring. The reaction was terminated by the addition of 400 µL phase A (0.1% trifluoracetic acid) before being fractionated into 1 mL volume by reverse-phase high-performance liquid chromatography (RP-HPLC, Waters 600 SimiPrep system) on a C18 column. The iodinated protein was […] by increasing concentrations of phase B (Acetonitrile + 0.1% TFA) and tested for competitive binding ability.
One day before transfection, the COS-7 cells were seeded in 75 cm^2 culture flasks (3 million cells/flask) in DMEM, containing 3.9 g/L NaHCO3 and supplemented with 10% FBS, 1% L-glutamine, 180 units/mL penicillin and 45 µg/mL streptomycin. After an overnight culture at 37 °C, 10% CO2 and 95% air humidity, the cells were transiently transfected with different GLP-2R constructs or pcDNA3.1 vector as previously described.[52] Following 24-h incubation, the cells were transferred to Costa® microtiter plates (150,000 cells/well, PerkinElmer) to achieve a 5%–10% specific binding. […] The cells were then washed twice in binding buffer (4 °C), lysed and counted for radioactivity using a Wallac Gamma Counter (PerkinElmer).

GLP-2R D244^ECL1A = molecular target: T2, GLP-2R D244^ECL1A (Homo sapiens, UniProt O95838, D244A); test: cAMP accumulation, D244^ECL1A; format: cell-based; parameters: WT (1–553); expressed in transfected cells; HEK 293T (cAMP); details: Table S5, D244A, HEK 293T, 30 min, RT, mean ± SEM, n ≥ 3 in duplicate; for Emax: read-out: cAMP Emax (% WT); for EC50: read-out: cAMP pEC50 (converted)
T2 sequence (O95838 1-553 D244A): T1 sequence (O95838 1-553 Y186A) with A186Y, D244A
Procedure: HEK 293T cells were cultured in Dulbecco’s Modified Eagle’s Medium (DMEM) (Gibco, Waltham, USA) supplemented with 10% (v/v) fetal bovine serum (FBS) (Gibco) and 1% (v/v) sodium pyruvate (Gibco) at 37 °C, 5% CO2 in a humidified incubator. They were seeded onto 6-well cell culture plates and transiently transfected with different GLP-2R constructs using Lipofectamine 2000 transfection reagent (Invitrogen, Carlsbad, CA, USA). After 24 h, the transfected cells were seeded onto 384-well microtiter plates (3000 cells per well) in HBSS supplemented with 5 mM HEPES, 0.1% (w/v) bovine serum albumin (BSA) and 0.5 mM 3-isobutyl-1- methylxanthine, and stimulated with increasing concentrations of GLP-2 for 30 min at RT. Eu and Ulight were diluted by cAMP detection buffer and added to the plates separately to terminate the reaction. Plates were incubated at RT for 60 min before measuring the fluorescence intensity at 620 nm and […] by an EnVision multilabel plate reader (PerkinElmer, Boston, USA).

Chain of GLP-1R (WT) (P43220 24-463, species assumed): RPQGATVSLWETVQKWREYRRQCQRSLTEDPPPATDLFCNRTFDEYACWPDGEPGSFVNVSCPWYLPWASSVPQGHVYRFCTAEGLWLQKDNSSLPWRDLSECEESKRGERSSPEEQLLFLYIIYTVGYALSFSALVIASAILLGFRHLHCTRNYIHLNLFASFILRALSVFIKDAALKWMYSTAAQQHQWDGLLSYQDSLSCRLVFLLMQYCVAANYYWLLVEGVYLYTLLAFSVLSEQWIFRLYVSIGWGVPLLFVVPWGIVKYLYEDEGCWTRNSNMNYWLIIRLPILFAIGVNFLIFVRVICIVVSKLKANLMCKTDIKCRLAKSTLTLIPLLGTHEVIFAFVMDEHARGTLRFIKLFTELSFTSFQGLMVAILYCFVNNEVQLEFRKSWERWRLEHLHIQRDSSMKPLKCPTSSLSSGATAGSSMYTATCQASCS

Row | Molecule | Emax (GLP-1R (WT)) [%] | EC50 (GLP-1R (WT)) [nM] | Emax (GLP-2R D244^ECL1A) [%] | EC50 (GLP-2R D244^ECL1A) [nM] | % Binding of WT (GLP-2R Y186^1.47A)
1 | CC[C@H](C)[C@H](NC(=O)[C@H](Cc1ccccc1)NC(=O)[C@H](CC(=O)O)NC(=O)[C@H](CCCNC(=N)N)NC(=O)[C@H](C)NC(=O)[C@H](C)NC(=O)[C@H](CC(C)C)NC(=O)[C@H](CC(N)=O)NC(=O)[C@H](CC(=O)O)NC(=O)[C@H](CC(C)C)NC(=O)[C@@H](NC(=O)[C@@H](NC(=O)[C@H](CC(N)=O)NC(=O)[C@H](CCSC)NC(=O)[C@H](CCC(=O)O)NC(=O)[C@H](CC(=O)O)NC(=O)[C@H](CO)NC(=O)[C@H](Cc1ccccc1)NC(=O)[C@H](CO)NC(=O)CNC(=O)[C@H](CC(=O)O)NC(=O)[C@H](C)NC(=O)[C@@H](N)Cc1c[nH]cn1)[C@@H](C)O)[C@@H](C)CC)C(=O)N[C@@H](CC(N)=O)C(=O)N[C@@H](Cc1c[nH]c2ccccc12)C(=O)N[C@@H](CC(C)C)C(=O)N[C@H](C(=O)N[C@@H](CCC(N)=O)C(=O)N[C@H](C(=O)N[C@@H](CCCCN)C(=O)N[C@H](C(=O)N[C@H](C(=O)N[C@@H](CC(=O)O)C(=O)O)[C@@H](C)O)[C@@H](C)CC)[C@@H](C)O)[C@@H](C)CC [Human GLP-2 (1–33)] | 4 ± 3.1 | 5.01 | 101 ± 2.8 | – | N.B.
2 | CC[C@H](C)[C@H](NC(=O)[C@H](Cc1ccccc1)NC(=O)[C@H](CC(=O)O)NC(=O)[C@H](CCCNC(=N)N)NC(=O)[C@H](C)NC(=O)[C@H](C)NC(=O)[C@H](CC(C)C)NC(=O)[C@H](CC(N)=O)NC(=O)[C@H](CC(=O)O)NC(=O)[C@H](CC(C)C)NC(=O)[C@@H](NC(=O)[C@@H](NC(=O)[C@H](CC(N)=O)NC(=O)[C@H](CCSC)NC(=O)[C@H](CCC(=O)O)NC(=O)[C@H](CC(=O)O)NC(=O)[C@H](CO)NC(=O)[C@H](Cc1ccccc1)NC(=O)[C@H](CO)NC(=O)CNC(=O)[C@H](CC(=O)O)NC(=O)CNC(=O)[C@@H](N)Cc1c[nH]cn1)[C@@H](C)O)[C@@H](C)CC)C(=O)N[C@@H](CC(N)=O)C(=O)N[C@@H](Cc1c[nH]c2ccccc12)C(=O)N[C@@H](CC(C)C)C(=O)N[C@H](C(=O)N[C@@H](CCC(N)=O)C(=O)N[C@H](C(=O)N[C@@H](CCCCN)C(=O)N[C@H](C(=O)N[C@H](C(=O)N[C@@H](CC(=O)O)C(=O)O)[C@@H](C)O)[C@@H](C)CC)[C@@H](C)O)[C@@H](C)CC [Teduglutide] | – | – | – | – | N.B.
3 | HAEGTFSDEMNTILDNLAARDFINWLIQTKITD [Chimeric GLP-1/GLP-2 (1-6)] | 7.1 ± 3.2 | 7.94 | 102 ± 2.5 | 0.251 | –

The next lines start with results.

Row | Emax (GLP-1R (WT)) [%] | EC50 (GLP-1R (WT)) [nM] | Emax (GLP-2R D244^ECL1A) [%] | EC50 (GLP-2R D244^ECL1A) [nM] | Molecule | % Binding of WT (GLP-2R Y186^1.47A)
4 | 112 ± 2.8 | 3.16 | 104 ± 1.8 | 0.251 | HADGSFSDEMNTILDNLAAKEFIAWLVKGRG [Chimeric GLP-1/GLP-2 (20-33)] | –
5 | 105 ± 2.4 | 0.0126 | 102 ± 1.8 | 3.16 | HADGSFTSDVSSYLEGQAARDFINWLIQTKITD [Chimeric GLP-1/GLP-2 (7-19)] | –
